# Assay results reported in US20240409585A1, “MACROCYCLIC IMMUNOMODULATORS” (priority 2021, published 2024).
# Bridge positions count the residues as written; N and C are the ends. Square brackets hold non-standard residues; d marks the D form. Peptide text beside a SMILES is read from it. ξ: configuration not given here. Trp(1-CH2COOH) = N[C@@H](Cc1cn(CC(=O)O)c2ccccc12)C(=O)O; Phe(3,4-F2) = N[C@@H](Cc1ccc(F)c(F)c1)C(=O)O; Bip = N[C@@H](Cc1ccc(-c2ccccc2)cc1)C(=O)O; Phe(3-Cl) = N[C@@H](Cc1cccc(Cl)c1)C(=O)O; 1Nal = N[C@@H](Cc1cccc2ccccc12)C(=O)O; d(hPhe) = N[C@H](CCc1ccccc1)C(=O)O; ξW = NC(Cc1c[nH]c2ccccc12)C(=O)O; NMeD = CN[C@@H](CC(=O)O)C(=O)O; NMeA = CN[C@@H](C)C(=O)O; Aib = CC(C)(N)C(=O)O
# Molecular target: T1, PE-labeled human PD-L1-Ig binding to Jurkat cell line over-expressing human PD-1 (Jurkat-PD-1) (Homo sapiens, UniProt Q15116)
# T1 construct: expressed in transfected cells; host or cells: Jurkat
# T1 sequence (Q15116 25-288): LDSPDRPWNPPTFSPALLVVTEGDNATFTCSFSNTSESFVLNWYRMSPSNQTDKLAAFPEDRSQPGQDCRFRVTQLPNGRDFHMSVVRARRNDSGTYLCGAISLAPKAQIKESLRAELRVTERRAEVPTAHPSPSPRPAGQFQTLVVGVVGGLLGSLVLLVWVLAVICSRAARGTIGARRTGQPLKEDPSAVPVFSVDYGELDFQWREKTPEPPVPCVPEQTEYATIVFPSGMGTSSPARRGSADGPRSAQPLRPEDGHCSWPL
# Assay: Jurkat-PD-1 Cell Binding High-Content Screening Assay (CBA): Method 1
# Details: Jurkat-hPD-1 cells, PE-labeled PD-L1-Ig 20 nM final; read-out: Jurkat HPDL1 PD1 IC50 (uM) (Method 1)
row,Compound,IC50 [µM]
1,Cc1cccc2c(CC3NC(=O)[C@H](CC(=O)O)NC(=O)[C@H](Cc4ccc(O)cc4)NC(=O)[C@H](Cc4ccccc4)NC(=O)CSC[C@@H](C(=O)N[C@@H](C)C(N)=O)NC(=O)[C@H]([C@@H](C)O)NC(=O)[C@H](C(C)C)NC(=O)[C@H](CC(C)C)NC(=O)[C@H](CCCNC(=N)N)NC(=O)[C@@H](CC(C)C)NC(=O)[C@H](C)N(C)C(=O)[C@H](CCCNC(=N)N)NC(=O)[C@H](Cc4ccc(-c5ccccc5)cc4)NC(=O)[C@H](C(C)C)NC3=O)n[nH]c12 (mixture of isomers) [Compound 1105],0.87
2,CC(C)C[C@@H]1NC(=O)[C@H](Cc2c[nH]c3ccccc23)NC(=O)[C@H](CC(=O)O)NC(=O)[C@H](Cc2ccc(O)cc2)NC(=O)[C@H](Cc2ccccc2)NC(=O)CSC[C@@H](C(=O)NCC(N)=O)NC(=O)[C@H](CO)NC(=O)[C@H](C(C)C)NC(=O)[C@H](CC(C)C)NC(=O)[C@H](CC(N)=O)NC(=O)[C@H](CO)NC(=O)[C@H](C)N(C)C(=O)[C@H](C(C)C)NC(=O)[C@H](Cc2ccc(-c3ccccc3)cc2)NC1=O [Compound 1007] ({CH2CO}-FYDWL[Bip]V[NMeA]SNLVSCG-NH2; thioether N-14),0.26
3,CC(C)C[C@@H]1NC(=O)[C@H](C(C)C)NC(=O)[C@H](Cc2ccccc2)NC(=O)[C@H](CC(=O)O)N(C)C(=O)[C@H](CCCNC(=N)N)NC(=O)[C@H](Cc2ccc(-c3ccccc3)cc2)NC(=O)[C@H](C(C)C)NC(=O)[C@H](Cc2c[nH]c3ccccc23)NC(=O)[C@H](CC(=O)O)NC(=O)[C@H](Cc2ccc(O)cc2)NC(=O)[C@H](Cc2ccccc2)NC(=O)CSC[C@@H](C(=O)NCC(N)=O)NC(=O)[C@H](CO)NC(=O)[C@H](C(C)C)NC1=O [Compound 1008] ({CH2CO}-FYDWV[Bip]R[NMeD]FVLVSCG-NH2; thioether N-14),0.7
4,CC(C)C[C@@H]1NC(=O)[C@H](CCCNC(=N)N)NC(=O)[C@H](Cc2cn(CC(=O)O)c3ccccc23)NC(=O)[C@H](C)N(C)C(=O)[C@H](CCCNC(=N)N)NC(=O)[C@H](Cc2ccc(-c3ccccc3)cc2)NC(=O)[C@H](C(C)C)NC(=O)[C@H](Cc2c[nH]c3ccccc23)NC(=O)[C@H](CC(=O)O)NC(=O)[C@H](Cc2ccc(O)cc2)NC(=O)[C@H](Cc2ccccc2)NC(=O)CSC[C@@H](C(=O)NCC(N)=O)NC(=O)[C@H](CO)NC(=O)[C@H](C(C)C)NC1=O [Compound 1011] ({CH2CO}-FYDWV[Bip]R[NMeA][Trp(1-CH2COOH)]RLVSCG-NH2; thioether N-14),0.1
5,CC(C)C[C@@H]1NC(=O)[C@H](CCCNC(=N)N)NC(=O)[C@H](Cc2cccc3ccccc23)NC(=O)[C@H](C)N(C)C(=O)[C@H](CCCNC(=N)N)NC(=O)[C@H](Cc2ccc(-c3ccccc3)cc2)NC(=O)[C@H](C(C)C)NC(=O)[C@H](Cc2c[nH]c3ccccc23)NC(=O)[C@H](CC(=O)O)NC(=O)[C@H](Cc2ccc(O)cc2)NC(=O)[C@H](Cc2ccccc2)NC(=O)CSC[C@@H](C(=O)NCC(N)=O)NC(=O)[C@H](CO)NC(=O)[C@H](C(C)C)NC1=O [Compound 1012] ({CH2CO}-FYDWV[Bip]R[NMeA][1Nal]RLVSCG-NH2; thioether N-14),0.13
6,CC(C)C[C@@H]1NC(=O)[C@H](CCCNC(=N)N)NC(=O)[C@H](Cc2cccc(Cl)c2)NC(=O)[C@H](C)N(C)C(=O)[C@H](CCCNC(=N)N)NC(=O)[C@H](Cc2ccc(-c3ccccc3)cc2)NC(=O)[C@H](C(C)C)NC(=O)[C@H](Cc2c[nH]c3ccccc23)NC(=O)[C@H](CC(=O)O)NC(=O)[C@H](Cc2ccc(O)cc2)NC(=O)[C@H](Cc2ccccc2)NC(=O)CSC[C@@H](C(=O)NCC(N)=O)NC(=O)[C@H](CO)NC(=O)[C@H](C(C)C)NC1=O [Compound 1014] ({CH2CO}-FYDWV[Bip]R[NMeA][Phe(3-Cl)]RLVSCG-NH2; thioether N-14),0.2
7,CC(C)C[C@@H]1NC(=O)[C@H](CCCNC(=N)N)NC(=O)[C@@H](CCc2ccccc2)NC(=O)[C@H](C)N(C)C(=O)[C@H](CCCNC(=N)N)NC(=O)[C@H](Cc2ccc(-c3ccccc3)cc2)NC(=O)[C@H](C(C)C)NC(=O)[C@H](Cc2c[nH]c3ccccc23)NC(=O)[C@H](CC(=O)O)NC(=O)[C@H](Cc2ccc(O)cc2)NC(=O)[C@H](Cc2ccccc2)NC(=O)CSC[C@@H](C(=O)NCC(N)=O)NC(=O)[C@H](CO)NC(=O)[C@H](C(C)C)NC1=O [Compound 1018] ({CH2CO}-FYDWV[Bip]R[NMeA][d(hPhe)]RLVSCG-NH2; thioether N-14),0.12
8,CC(C)C[C@@H]1NC(=O)[C@H](CCCNC(=N)N)NC(=O)[C@@H](Cc2ccc(O)cc2)NC(=O)[C@H](C)N(C)C(=O)[C@H](CCCNC(=N)N)NC(=O)[C@H](Cc2ccc(-c3ccccc3)cc2)NC(=O)[C@H](C(C)C)NC(=O)[C@H](Cc2c[nH]c3ccccc23)NC(=O)[C@H](CC(=O)O)NC(=O)[C@H](Cc2ccc(O)cc2)NC(=O)[C@H](Cc2ccccc2)NC(=O)CSC[C@@H](C(=O)NCC(N)=O)NC(=O)[C@H](CO)NC(=O)[C@H](C(C)C)NC1=O [Compound 1020] ({CH2CO}-FYDWV[Bip]R[NMeA][dY]RLVSCG-NH2; thioether N-14),0.07
9,CC(C)C[C@@H]1NC(=O)[C@H](CCCNC(=N)N)NC(=O)C(Cc2c[nH]c3ccccc23)NC(=O)[C@H](C)N(C)C(=O)[C@H](CCCNC(=N)N)NC(=O)[C@H](Cc2ccc(-c3ccccc3)cc2)NC(=O)[C@H](C(C)C)NC(=O)[C@H](Cc2c[nH]c3ccccc23)NC(=O)[C@H](CC(=O)O)NC(=O)[C@H](Cc2ccc(O)cc2)NC(=O)[C@H](Cc2ccccc2)NC(=O)CSC[C@@H](C(=O)NCC(N)=O)NC(=O)[C@H](CO)NC(=O)[C@H](C(C)C)NC1=O (stereo partly shown) [Compound 1021] ({CH2CO}-FYDWV[Bip]R[NMeA][ξW]RLVSCG-NH2; thioether N-14),0.14

# The remaining lines, values ahead:
row,IC50 [µM],Compound
1,0.16,CC(C)C[C@@H]1NC(=O)[C@H](CCCNC(=N)N)NC(=O)C(C)(C)NC(=O)[C@H](C)N(C)C(=O)[C@H](CCCNC(=N)N)NC(=O)[C@H](Cc2ccc(-c3ccccc3)cc2)NC(=O)[C@H](C(C)C)NC(=O)[C@H](Cc2c[nH]c3ccccc23)NC(=O)[C@H](CC(=O)O)NC(=O)[C@H](Cc2ccc(O)cc2)NC(=O)[C@H](Cc2ccccc2)NC(=O)CSC[C@@H](C(=O)NCC(N)=O)NC(=O)[C@H](CO)NC(=O)[C@H](C(C)C)NC1=O [Compound 1013] ({CH2CO}-FYDWV[Bip]R[NMeA][Aib]RLVSCG-NH2; thioether N-14)
2,0.16,"CC(C)C[C@@H]1NC(=O)[C@H](CCCNC(=N)N)NC(=O)[C@H](Cc2ccc(F)c(F)c2)NC(=O)[C@H](C)N(C)C(=O)[C@H](CCCNC(=N)N)NC(=O)[C@H](Cc2ccc(-c3ccccc3)cc2)NC(=O)[C@H](C(C)C)NC(=O)[C@H](Cc2c[nH]c3ccccc23)NC(=O)[C@H](CC(=O)O)NC(=O)[C@H](Cc2ccc(O)cc2)NC(=O)[C@H](Cc2ccccc2)NC(=O)CSC[C@@H](C(=O)NCC(N)=O)NC(=O)[C@H](CO)NC(=O)[C@H](C(C)C)NC1=O [Compound 1015] ({CH2CO}-FYDWV[Bip]R[NMeA][Phe(3,4-F2)]RLVSCG-NH2; thioether N-14)"
3,0.13,CC(C)C[C@@H]1NC(=O)[C@H](CCCNC(=N)N)NC(=O)[C@@H](C)NC(=O)[C@H](C)N(C)C(=O)[C@H](CCCNC(=N)N)NC(=O)[C@H](Cc2ccc(-c3ccccc3)cc2)NC(=O)[C@H](C(C)C)NC(=O)[C@H](Cc2c[nH]c3ccccc23)NC(=O)[C@H](CC(=O)O)NC(=O)[C@H](Cc2ccc(O)cc2)NC(=O)[C@H](Cc2ccccc2)NC(=O)CSC[C@@H](C(=O)NCC(N)=O)NC(=O)[C@H](CO)NC(=O)[C@H](C(C)C)NC1=O [Compound 1016] ({CH2CO}-FYDWV[Bip]R[NMeA][dA]RLVSCG-NH2; thioether N-14)
4,0.04,CC(C)C[C@@H]1NC(=O)[C@H](CCCNC(=N)N)NC(=O)[C@@H](CC(C)C)NC(=O)[C@H](C)N(C)C(=O)[C@H](CCCNC(=N)N)NC(=O)[C@H](Cc2ccc(-c3ccccc3)cc2)NC(=O)[C@H](C(C)C)NC(=O)[C@H](Cc2c[nH]c3ccccc23)NC(=O)[C@H](CC(=O)O)NC(=O)[C@H](Cc2ccc(O)cc2)NC(=O)[C@H](Cc2ccccc2)NC(=O)CSC[C@@H](C(=O)NCC(N)=O)NC(=O)[C@H](CO)NC(=O)[C@H](C(C)C)NC1=O [Compound 1017] ({CH2CO}-FYDWV[Bip]R[NMeA][dL]RLVSCG-NH2; thioether N-14)
5,0.36,CC(C)C[C@@H]1NC(=O)[C@H](CCCNC(=N)N)NC(=O)[C@@H](CC(N)=O)NC(=O)[C@H](C)N(C)C(=O)[C@H](CCCNC(=N)N)NC(=O)[C@H](Cc2ccc(-c3ccccc3)cc2)NC(=O)[C@H](C(C)C)NC(=O)[C@H](Cc2c[nH]c3ccccc23)NC(=O)[C@H](CC(=O)O)NC(=O)[C@H](Cc2ccc(O)cc2)NC(=O)[C@H](Cc2ccccc2)NC(=O)CSC[C@@H](C(=O)NCC(N)=O)NC(=O)[C@H](CO)NC(=O)[C@H](C(C)C)NC1=O [Compound 1019] ({CH2CO}-FYDWV[Bip]R[NMeA][dN]RLVSCG-NH2; thioether N-14)
6,0.64,CC(C)C[C@@H]1NC(=O)[C@H](CCCNC(=N)N)NC(=O)[C@@H](Cc2cnc[nH]2)NC(=O)[C@H](C)N(C)C(=O)[C@H](CCCNC(=N)N)NC(=O)[C@H](Cc2ccc(-c3ccccc3)cc2)NC(=O)[C@H](C(C)C)NC(=O)[C@H](Cc2c[nH]c3ccccc23)NC(=O)[C@H](CC(=O)O)NC(=O)[C@H](Cc2ccc(O)cc2)NC(=O)[C@H](Cc2ccccc2)NC(=O)CSC[C@@H](C(=O)NCC(N)=O)NC(=O)[C@H](CO)NC(=O)[C@H](C(C)C)NC1=O [Compound 1022] ({CH2CO}-FYDWV[Bip]R[NMeA][dH]RLVSCG-NH2; thioether N-14)
7,0.14,CC(C)C[C@@H]1NC(=O)[C@H](CCCNC(=N)N)NC(=O)[C@@H](Cc2ccccc2)NC(=O)[C@H](C)N(C)C(=O)[C@H](CCCNC(=N)N)NC(=O)[C@H](Cc2ccc(-c3ccccc3)cc2)NC(=O)[C@H](C(C)C)NC(=O)[C@H](Cc2c[nH]c3ccccc23)NC(=O)[C@H](CC(=O)O)NC(=O)[C@H](Cc2ccc(O)cc2)NC(=O)[C@H](CCC(N)=O)NC(=O)CSC[C@@H](C(=O)NCC(N)=O)NC(=O)[C@H](CO)NC(=O)[C@H](C(C)C)NC1=O [Compound 1023] ({CH2CO}-QYDWV[Bip]R[NMeA][dF]RLVSCG-NH2; thioether N-14)
